Test results published in US20260306502A1, “MITOCHONDRIAL UNCOUPLERS FOR TREATMENT OF METABOLIC DISEASES AND CANCER” (Mito Biopharma, LLC, priority 2022, published 2026).
Read-outs that look alike come from different tables or passages of the source.

Assays:
C2C12 cells = assay: Mitochondrial uncoupling activity by oxygen consumption rate (OCR) assay, Seahorse, in presence of oligomycin; assay type: cell-based, mouse; conditions: Mus musculus, C2C12; in the presence of oligomycin 2.5 μM; read-out: COCR-min: minimal concentration increasing OCR in the presence of oligomycin
Summary of the method: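 Mouse C2C12 myoblasts grown in 10% FBS medium had OCR measured on Seahorse XF96/XF24 sequentially: basal, after 2.5 μM oligomycin (final), then after compound at varying concentrations. Rotenone/antimycin A confirmed mitochondrial origin. COCR-min is the minimal compound concentration inducing OCR in the presence of oligomycin.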

[1] = test system: cultured mammalian cells, the NIH-3T3 cells, C2C12 cells, and other mammalian cell lines; assay: Mitochondrial membrane potential (MMP) assay, TMRE (or DilC1(5)) staining, related to OCR induction; assay type: cell-based; conditions: ratio of concentration leading to 10% MMP retention (90% MMP loss, TMRE) to minimal concentration leading to OCR increase
Procedure: Mitochondrial membrane potential assay was performed using the standard TMRE (tetramethylrhodamine ethyl ester) staining method with cultured mammalian cells, the NIH-3T3 cells, C2C12 cells, and other mammalian cell lines. Cells were seeded in 6-well plates and cultured in DMEM medium supplemented with 10% fetal bovine serum and 2 mM glutamine. Cells were allowed to grow to the logarithmic growth phase prior to experiments. The cells were treated with each individual compound at various concentrations for two hours, followed by staining with TMRE at a final concentration of 100 nM for 15 minutes. The cells were then washed once with PBS, and examined under fluorescence microscopy. Cells treated with various concentrations of niclosamide ethanolamine were used as a positive control.
In some examples, mitochondrial membrane potential was measured with DilC1(5) staining. Briefly, DilC1(5) was added to the cells to 50 nM final concentration and the cells were incubated at 37° C., 5% CO2, for 15 to 30 minutes. Cells were washed once by adding 2 mL of warm phosphate-buffered saline (PBS). Mitochondrial staining was determined by fluorescence microscopy with 633 nm excitation using standard filters for far-red emission.
Using the ratio between C10% TMRE (the concentration at which 10% MMP remains, i.e. 90% MMP is lost) and Cmin-OCR (the concentration at which minimal OCR induction is observed), we categorized the MMP-retaining uncouplers into two groups.

[2] = PO pharmacokinetic study, oral exposure (Example B3); assay type: in vivo; conditions: blood, po; 10 mg/kg gavage, 24 hrs
Procedure: The blood concentration of the compound was then determined at 0 (pre-dosing), 5 min, 15 min, 30 min, 1 hr, 2 hr, 4 hr, 8 hr, 24 hr time points by LC-MS/MS analysis (See Tables 1 and 2, vide supra).

C2C12 = assay: Cell growth inhibition assay (SRB), C2C12; assay type: cell-based; conditions: Mus musculus, C2C12, 48 h
Procedure: Cell growth inhibition assays were performed using a protocol standardized by National Cancer Institute (NCI) for evaluating anti-cancer drugs. Various mammalian cell lines were used for the assays. Briefly, the cells were inoculated into 96 well microtiter plates. After cell inoculation, the microtiter plates were incubated for cell growth for 24 h prior to the addition of compounds. After 24 h, two plates of each cell line were fixed in situ with TCA, to represent a measurement of the cell population for each cell line at the time of compound addition (Tz). Test compounds were solubilized in dimethyl sulfoxide. At the time of test compound addition, five 10-fold or ½ log serial dilutions were made to provide a total of five test compound concentrations plus control. Aliquots of 100 μl of these different test compound dilutions were added to the appropriate microtiter wells already containing 100 μl of the medium, resulting in the required final test compound concentrations. […] The bound stain was subsequently solubilized with 10 mM trizma base, and the absorbance was read on an automated plate reader at a wavelength of 515 nm. Using the seven absorbance measurements [time zero, (Tz), control growth, (C), and test growth in the presence of a compound at the five concentration levels (Ti)], the percentage growth was calculated at each of the test compound concentrations levels.

[3] = in words, cited from earlier work
HepG2 = assay: Cell growth inhibition assay (SRB), HepG2; assay type: cell-based; conditions: Homo sapiens, HepG2, 48 h
Procedure: Cell growth inhibition assays were performed using a protocol standardized by National Cancer Institute (NCI) for evaluating anti-cancer drugs. Various mammalian cell lines were used for the assays. Briefly, the cells were inoculated into 96 well microtiter plates. After cell inoculation, the microtiter plates were incubated for cell growth for 24 h prior to the addition of compounds. After 24 h, two plates of each cell line were fixed in situ with TCA, to represent a measurement of the cell population for each cell line at the time of compound addition (Tz). Test compounds were solubilized in dimethyl sulfoxide. At the time of test compound addition, five 10-fold or ½ log serial dilutions were made to provide a total of five test compound concentrations plus control. Aliquots of 100 μl of these different test compound dilutions were added to the appropriate microtiter wells already containing 100 μl of the medium, resulting in the required final test compound concentrations. Following test compound addition, the plates were incubated for an additional 48 h. The assay was terminated by the addition of cold TCA. Cells were fixed in situ with 50 μl of cold 50% (w/v) TCA (final concentration, 10% TCA), washed five times with tap water and air-dried. Sulforhodamine B (SRB) solution (100 μl) at 0.4% (w/v) in 1% acetic acid was added to each well, and plates were incubated for 10 minutes at room temperature. After staining, the unbound dye was removed by washing five times with 1% acetic acid and the plates were air-dried. The bound stain was subsequently solubilized with 10 mM trizma base, and the absorbance was read on an automated plate reader at a wavelength of 515 nm. Using the seven absorbance measurements [time zero, (Tz), control growth, (C), and test growth in the presence of a compound at the five concentration levels (Ti)], the percentage growth was calculated at each of the test compound concentrations levels.

[4] = test system: high-fat diet (HFD)-induced diabetic mouse model; assay: Efficacy in high-fat diet (HFD)-induced diabetic/fatty liver mouse model; assay type: in vivo; conditions: Mus musculus; HFD model, oral daily gavage; read-out: Efficacious dosage to reduce blood glucose in mouse models, oral daily gavage
Procedure: For HFD induced diabetic mouse model, C57Bl6 mice (male, n=6) were induced to obese and diabetic conditions by feeding high-fat diet (HFD, 60% fat calories, Research Diet, Inc. New Brunswick, NJ) for 3-4 months. […] During the 3-week period, the mice continued feeding HFD. […] The blood glucose levels were measured after an overnight fast, plasma insulin levels were tested after 5-6 hours fast, and the glycated HbA1c levels were determined in whole blood samples.
FIG. 15C and FIG. 15D show liver sections from mice fed HFD following 3 weeks of treatment with Compounds 25 and 64, respectively (P.O. dosing of 5 mg/kg, by daily gavage).
Experiments were similarly performed with other compounds, in either high-fat diet induced diabetes and fatty liver models, or in db/db mouse model, or in both, by daily oral gavage administration with low dosages.

[5] = Rat pharmacokinetics study, oral gavage (Example B8); assay type: in vivo
Procedure: Pharmacokinetics of the testing compounds was determined in male SD rats, n=3. Briefly, each compound was prepared in 0.5% CMC-Na and 1% Tween in water to yield a homogeneous suspension at 1 mg/ml, and then administrated to 10 mg/kg via oral gavage. The animals were fasted overnight before dosing and fed for 4 hour post dosing with free access to water for all time. Blood samples were collected at pre-dose, 0.083, 0.25, 0.5, 1, 2, 4, 8 and 24 hours, into K2EDTA-coated tube via tail vein for serial sampling and cardiac puncture for terminal sampling. […] Plasma samples were stored at approximately −80° C. until analysis. The compound in the plasma samples were then extracted and concentrations determined by LC-MS/MS.

[6] = Metabolic stability assay in rat liver microsomes; assay type: in vitro ADME; conditions: for half-life at 1 µM: rat, liver microsomes
Procedure: The metabolic stability of the compounds was evaluated in incubation with rat liver microsomes.

Row | SMILES | minimal effective concentration (C2C12 cells) | C10%TMRE/Cmin-OCR [1] | AUC at 24 h [2] | GI50 (C2C12) | GI50 (HepG2) | also measured
1 | COCCOCc1cc(C(F)(F)F)cc2sc(NC(=O)c3cc(Cl)cc(C)c3O)nc12 [Compound 13, 5-chloro-2-hydroxy-N-(4-((2-methoxyethoxy)methyl)-6-(trifluoromethyl)benzo[d]thiazol-2-yl)-3-methylbenzamide] | < 5 µM | ~13 | 30000 to 60000 ng·h/mL | 5 to 20 µM | – | –
2 | O=[N+]([O-])c1ccc(O)c([N+](=O)[O-])c1 [DNP, 2,4-dinitrophenol] | – | ≤ 3 | – | – | – | half-life [3]: days to weeks; toxicity in humans ([3]; human obesity treatment): exhibited high levels of toxicity and had a narrow therapeutic window
3 | COCc1cc(C(F)(F)F)cc2sc(NC(=O)c3cc(Cl)cc(C)c3O)nc12 [Compound 68, 5-chloro-2-hydroxy-N-(4-(methoxymethyl)-6-(trifluoromethyl)benzo[d]thiazol-2-yl)-3-methylbenzamide] | < 5 µM | – | 30000 to 60000 ng·h/mL | – | < 5 µM | –
4 | C[C@@H]1CN(Cc2cc(Cl)cc(C(=O)Nc3nc4ccc(C(F)(F)F)cc4s3)c2O)C[C@H](C)O1.Cl [Compound 11, 5-chloro-3-((cis-2,6-dimethylmorpholino)methyl)-2-hydroxy-N-(6-(trifluoromethyl)benzo[d]thiazol-2-yl)benzamide] | < 5 µM | – | 60000 to 120000 ng·h/mL | 5 to 20 µM | – | minimal effective dose [4]: 1 mg/kg
5 | Cc1cc(Cl)cc(C(=O)Nc2nc3c(C4CCCO4)cc(C(F)(F)F)cc3s2)c1O (stereo not drawn) [Compound 71, 5-chloro-2-hydroxy-3-methyl-N-(4-(tetrahydrofuran-2-yl)-6-(trifluoromethyl)benzo[d]thiazol-2-yl)benzamide] | < 5 µM | – | – | – | < 5 µM | –
6 | CN(C)CCc1cc(Cl)cc(C(=O)Nc2nc3ccc(C(F)(F)F)cc3s2)c1O [Compound 2 of U.S. Pat. No. 10,227,315] | – | – | – | – | – | Rat Oral PK (in vivo) half-life (T1/2, hour) ([5]; 10 mg/kg oral gavage): 66.9 h; half-life ([5]; plasma, 10 mg/kg, oral): 66.9 h; Metabolic stability half-life (T1/2, min, rat liver microsome) ([6]; 1 μM compound, 0.5 mg/ml microsomal protein, 37° C., 1 µM): 2,132 min; half-life at 1 µM ([6]; 1 μM compound, 0.5 mg/ml microsomal protein, 37° C., read-out: Metabolic stability half-life (T1/2, min, rat liver microsome)): 35.5 h; half-life at 1 µM ([6]; rat liver microsomes, read-out: rat microsome metabolic stability, half-life): 35.5 h
